Where “and” joins values, the source holds several entries; their conditions need not be identical. Identical values can stand only once.

The test deals with Staphylococcus aureus biofilm (ATCC 29213). The test can be described thus: MBEC P&G assay: eradication of an established (preformed) biofilm. It is filed as cell-based. Conditions: for Log Reduction (Log R): vs. GC (growth control). The procedure:
The effectiveness of tri-calcium phosphate granules coated with a matrix composition according to embodiments of the invention in eradicating established biofilm was measured using the MBEC™ (Minimum Biofilm Eradication Concentration) Physiology and Genetics Assay.
MBEC™ Test Method Overview: MBEC™ test method specifies the operational parameters required to grow and treat different bacterial biofilms in a high throughput screening assay. The assay device consists of a plastic lid with ninety-six (96) pegs and a corresponding receiver plate with ninety-six (96) individual wells that have a maximum 200 μL working volume. Biofilm is established on the pegs in a batch culture based model (i.e., no flow of nutrients into or out of an individual well) with gentle mixing. The established biofilm is transferred to a new receiver plate for disinfectant efficacy testing.
Test Organisms: Staphylococcus aureus (an osteomyelitis-related strains); source: ATCC 29213; Dilution/Challenge Media: 1,000×TSB+10% human serum 24 hrs; Growth Media/agar: Tryptic Soy Broth/Tryptic Soy agar for 24 hrs Aerobic cond.
TEST METHOD overview: The experimental process for high-throughput antimicrobial susceptibility testing using the hydroxyapatite coated MBEC™ P&G assay. This standard protocol was broken into a series of small steps, each of which is detailed in the sections below.
1. Culture/Inoculum Preparation:
Using a cryogenic stock (at −70° C.), a first sub-culture of Staphylococcus aureus was streaked out on OSA (organism specific agar). The plates were incubated at appropriate growth conditions for 20±2.0 hours and further stored at 4° C.
A second sub-culture taken from the first sub-culture was streaked out on OSA. The plates were incubated at appropriate growth conditions for 20±2.0 hours. An isolated colony from the second sub-culture was aseptically removed from the OSA plate and inoculated into 50 mL of sterile bacterial liquid growth broth, followed by incubation appropriate growth conditions for 20±2.0 hours (at 150 rpm).
The inoculum was adjusted to an approximate cell density of 10^6 CFU/mL by diluting in OSB according to table 1.
Samples (100 μL) of the diluted organism were used for an inoculum check by serially diluting and spot plating on OSA in triplicate.
Preparation of the Challenge Plate:
150 μL of the remaining diluted organism were placed in each of the corresponding wells of an MBEC™ P&G device except the sterility controls (Table 5). The device was placed on an orbital shaker (110 RPM) in a humidified incubator at 37±1° C.
Antimicrobial Challenge for Preformed Biofilm:
The biofilm formed on the lid of the MBEC device was rinsed by dipping the lid into saline (˜30 seconds) to remove planktonic cells. The lid was then put on top of the challenge plate and incubated on a rotary shaker at 110 rpm at 35±2° C. for 24±2 hours.
After incubation (specified above), planktonic cells were rinsed off the biofilm by dipping the lid into saline (˜20-30 seconds). The lid was then transferred to a neutralizer/recovery plate and put in a sonicator (˜30 minutes) to dislodge surviving biofilm.
Following sonication, 100 μL from each well of the MBEC™ plate, were put into the first 12 empty wells of the first row of a 96 well-micro titer plate and were further diluted by 10 fold down each of the 8 rows (10^0-10^7 dilution). 5 μL from each well were then used for spotting prepared OSA plates. The agar plates were incubated at 37±1° C. and counted after approximately 24-48 hours of incubation. The arithmetic mean of the number of colonies counted on the plates was calculated.
100 μL of the sterile neutralizer was added to each well of the recovery plate to top up the volume back to 200 μL. The refilled plate is incubated at 35±2° C. for 24±2 hours, after which the plates were analyzed using a plate reader.
The log density for one peg was calculated as follows:
LOG10 (CFU/peg)=LOG10 [(XB) (D)] where: X=mean CFU; B=volume plated (0.02 mL) and D=dilution. […]

Take Gentamicin [D]: the “Average Log10 CFU/peg recoveries” value (0.5 μg) is 3.48 Log10 CFU/peg; the “Average Log10 CFU/peg recoveries” value (1.0 μg) turned out to be 3.21 Log10 CFU/peg; the “Average Log10 CFU/peg recoveries” value (2.0 μg) worked out at 1.69 Log10 CFU/peg; the “Average Log10 CFU/peg recoveries” value (4.0 μg) turned out to be 1.31 Log10 CFU/peg; the “Average Log10 CFU/peg recoveries” value (8.0 μg) came to 0.00 Log10 CFU/peg; the “Average Log10 CFU/peg recoveries” value (16 μg) was 0.00 Log10 CFU/peg. Moreover, the “Average Log10 CFU/peg recoveries” value (32 μg) turned out to be 0.00 Log10 CFU/peg. Besides, the “Log10 CFU/peg recoveries, replicates 1-3” value runs as follows: (0.5 μg) 3.90 Log10 CFU/peg and 2.90 Log10 CFU/peg and 3.64 Log10 CFU/peg; (1.0 μg) 4.72 Log10 CFU/peg and 2.60 Log10 CFU/peg and 2.30 Log10 CFU/peg; (2.0 μg) 2.30 Log10 CFU/peg and 0.00 Log10 CFU/peg and 2.78 Log10 CFU/peg; (4.0 μg) 1.61 Log10 CFU/peg and 2.30 Log10 CFU/peg and 0.00 Log10 CFU/peg; (8.0 μg) 0.00 Log10 CFU/peg; (16 μg) 0.00 Log10 CFU/peg. For the same substance, for the setting “32 μg”, the “Log10 CFU/peg recoveries, replicates 1-3” value came to 0.00 Log10 CFU/peg. Also, the “Log Reduction (Log R)” value amounted to 1.11 LOG10 (0.5 μg); 1.38 LOG10 (1.0 μg); 2.90 LOG10 (2.0 μg); 3.29 LOG10 (4.0 μg); 4.59 LOG10 (8.0 μg); 4.59 LOG10 (16 μg). Besides, the “Log Reduction (Log R)” value (32 μg) is 4.59 LOG10.

For the origin of these results see patent US10758639B2, “Methods for the treatment of peri-implantitis” (POLYPID LTD., priority 2014, dated 2020).
